Assay results taken from PMC6027665, “Synthesis and Cytotoxicity Evaluation of Novel Asymmetrical Mono-Carbonyl Analogs of Curcumin (AMACs) against Vero, HeLa, and MCF7 Cell Lines” (Scientia Pharmaceutica, 2018).
≈ marks a conversion by molar mass, not a printed value. Read-outs that look alike come from different tables or passages of the source.

Columns and labels:
[1] = Brine shrimp lethality test (BSLT); type: in vivo; details: Artemia salina (brine shrimp) larvae, in vivo, other: compound diluted in the seawater holding the larvae; brine shrimp larvae, 24 h, triplicate
Method: (§1) The assay was carried out according to the principle and protocol previously described by Meyer, with slight modification. Artemia salina L. eggs were inserted into a box containing seawater; the box was placed under UV lamp, and after 48 h the eggs hatched into larvae and ready for the test. The compounds (1a–1e, 2a–2e) were diluted in 10 mL seawater containing 10 larvae (1% DMSO (v/v)) until concentrations 20, 200, 500, and 1000 ppm were reached. After 24 h, the live and dead shrimp were counted. The mortality rate (%) was obtained by comparing the number of total dead larvae and the total number of larvae. The experiment was conducted in triplicate. The concentrations (dose)-response (% mortality) data were transformed into a straight line using a logit transformation, and the concentration required to kill 50% of the population (LC50 values) was derived from the best fit line obtained by linear regression analysis.

Artemia salina L. larvae = experiment: Brine shrimp lethality test (BSLT); type: in vivo; details: Artemia salina, read-out: BSLT toxicity level
Method: as §1

[2] = test system: Vero cell lines (ATCC CCL-81); experiment: MTT proliferation assay, Vero cell lines (normal cells); type: cell-based, African green monkey; details: 48 h incubation, mean ± SD (n = 3)
Method: (§2) The cytotoxic activity of the synthesized compounds was evaluated against human cervix carcinoma (HeLa, ATCC CCL-2) cell lines, human estrogen-dependent breast carcinoma (MCF7, ATCC HTB-22) cell lines, and kidney of an African green monkey (Vero, ATCC CCL-81) as a normal cell lines using the methyl thiazolyl tetrazolium (MTT) method conducted according to the MTT assay protocol published by the American Type Culture Collection (ATCC). Cisplatin was used as a reference drug. Curcumin was also evaluated as a comparative compound on the tests against Vero and MCF7 cell lines, and doxorubicin was evaluated as an additional comparator on the test against MCF7 cell lines. The assay detects the reduction of yellow tetrazolium (MTT) by metabolically active cells to be purple formazan measured using spectrophotometry.
(§3) The cells lines were seeded into 96-well plates at a density of 5000 cells per well, replenished with growth media consisting of Dulbecco’s Modified Eagle’s medium (D-MEM) for Vero or Roswell Park Memorial Institute (RPMI) 1640 medium for MCF7 and HeLa, 5% Fetal Bovine Serum (FBS), 100 U/mL penicillin, and 100 μg/mL streptomycin. The cells were incubated at 37 °C in 5% CO2 for 24 h. Then, a series concentrations of the tested compounds (1.5, 3.1, 6.2, 12.5, 25.0, 50.0, 100.0, and 200.0 µg/mL) were added to each well of the plate and incubated for 48 h. After that, 10 μL fresh solution of MTT reagent was added to each well, and the plate was incubated in a CO2 incubator at 37 °C for 4 h. After the purple precipitate was obtained, the cells were dissolved in ethanol and their optical density was recorded at 595 nm. The experiment was performed in triplicate. Percent proliferation inhibition was calculated using the following formula: Viability cells inhibition (%)=100−[(At−Ab)/(Ac−Ab)] ×100%
(§4) At = absorption of test compound, Ab = absorption of blank, Ac = absorption of control.
(§5) The concentration of the synthesized compounds required to inhibit 50% of the growth of the cell lines (IC50 values) was calculated by analyzing the relationship between concentrations and percent (%) inhibitions using GraphPad Prism 7 version 7.00 for Windows, GraphPad Software, La Jolla, CA, USA, www.graphpad.com.

[3] = test system: HeLa cell lines (human cervix carcinoma, ATCC CCL-2); experiment: MTT proliferation assay, HeLa cell lines; type: cell-based; details: 48 h incubation, mean ± SD (n = 3)
Method: as §2, §3, §4, §5

[4] = test system: MCF7 cell lines (human estrogen-dependent breast carcinoma, ATCC HTB-22); experiment: MTT proliferation assay, MCF7 cell lines; type: cell-based
Method: as §2, §3, §4, §5

[5] = test system: HeLa cell lines (human cervix carcinoma, ATCC CCL-2); parameters: method as in doi:10.1016/j.toxlet.2016.06.1915; details: value of an earlier study; cited from earlier work
[6] = Homo sapiens, MCF7, 48 h incubation, mean ± SD (n = 3), read-out: IC50 (µM) MCF7

## COc1cc(/C=C2\CCC/C(=C\c3ccccc3)C2=O)ccc1O [Compound 1a, (2E,6E)-2-[(4-hydroxy-3-methoxyphenyl)methylidene]-6-(phenylmethylidene)cyclohexan-1-one]
[1]
  LC50 at 24 h: 197 µM
Artemia salina L. larvae
  LC50: 30 to 100 µg/mL (≈ 93.6 to 312 µM)
[2]; Chlorocebus sabaeus, Vero
  IC50: 13.98 ± 0.04 µM
[3]; Homo sapiens
  IC50: > 100 µM
[4]; [6]
  IC50: > 100 µM

## COc1cc(/C=C/C(=O)CC(=O)/C=C/c2ccc(O)c(OC)c2)ccc1O [Curcumin]
[2]; Chlorocebus sabaeus, Vero
  IC50: 31.4 ± 0.41 µM
[4]; [6]
  IC50: 10.5 ± 1.1 µM

## CCN(CC)Cc1cc(/C=C2\CCC/C(=C\c3ccc(F)cc3)C2=O)cc(OC)c1O [Compound 2c, (2E,6E)-2-({3-[(diethylamino)methyl]-4-hydroxy-5-methoxyphenyl}methylidene)-6-[(4-fluorophenyl)methylidene]cyclohexan-1-one]
[1]
  LC50 at 24 h: 88.4 µM
Artemia salina L. larvae
  LC50: 30 to 100 µg/mL (≈ 70.8 to 236 µM)
[2]; Chlorocebus sabaeus, Vero
  IC50: 4.23 ± 0.32 µM
[3]; Homo sapiens
  IC50: 41.1 ± 0.16 µM

## COc1cccc2c1C(=O)c1c(O)c3c(c(O)c1C2=O)C[C@@](O)(C(=O)CO)C[C@@H]3O[C@H]1C[C@H](N)[C@H](O)[C@H](C)O1 [Doxorubicin, reference compound]
[4]; [6]
  IC50: < 2.94 µM

## N.N.[Cl][Pt][Cl] [Cisplatin, reference compound]
[2]
  IC50: 84.7 ± 2.09 µM
[3]
  IC50: 67.6 ± 2.04 µM
[4]; 48 h incubation, mean ± SD (n = 3), read-out: IC50 (µM) MCF7
  IC50: 12.8 ± 1.35 µM
[5]
  IC50: 12.3 µM

## CCN(CC)Cc1cc(/C=C2\CCC/C(=C\c3ccccc3)C2=O)cc(OC)c1O [Compound 2a, (2E,6E)-2-({3-[(diethylamino)methyl]-4-hydroxy-5-methoxyphenyl}methylidene)-6-(phenylmethylidene)cyclohexan-1-one]
[1]
  LC50 at 24 h: 921 µM
Artemia salina L. larvae
  LC50: 100 to 1000 µg/mL (≈ 247 to 2470 µM)
[2]; Chlorocebus sabaeus, Vero
  IC50: 4.14 ± 0.21 µM
[3]; Homo sapiens
  IC50: 46.6 ± 1.54 µM

## COc1cc(/C=C2\CCC/C(=C\c3ccc(C)cc3)C2=O)ccc1O [Compound 1e, (2E,6E)-2-[(4-hydroxy-3-methoxyphenyl)methylidene]-6-[(4-methylphenyl)methylidene] cyclohexan-1-one]
[1]
  LC50 at 24 h: 78.7 µM
Artemia salina L. larvae
  LC50: < 30 µg/mL
[2]; Chlorocebus sabaeus, Vero
  IC50: 16.1 ± 0.18 µM
[3]; Homo sapiens
  IC50: 61.2 ± 2.86 µM
[4]; [6]
  IC50: 10.4 ± 0.36 µM

## CCN(CC)Cc1cc(/C=C2\CCC/C(=C\c3ccc(C)cc3)C2=O)cc(OC)c1O [Compound 2e, (2E,6E)-2-({3-[(diethylamino)methyl]-4-hydroxy-5-methoxyphenyl}methylidene)-6-[(4-methylphenyl)methylidene]cyclohexan-1-one]
[1]
  LC50 at 24 h: 1700 µM
Artemia salina L. larvae
  LC50: 100 to 1000 µg/mL (≈ 238 to 2380 µM)
[2]; Chlorocebus sabaeus, Vero
  IC50: 15.02 ± 0.14 µM
[3]; Homo sapiens
  IC50: 76.6 ± 4.27 µM
[4]; [6]
  IC50: 14.6 ± 1.96 µM

## COc1cc(/C=C2\CCC/C(=C\c3ccc(Cl)cc3)C2=O)ccc1O [Compound 1d, (2E,6E)-2-[(4-hydroxy-3-methoxyphenyl)methylidene]-6-[(4-chlorophenyl)methylidene] cyclohexan-1-one]
[1]
  LC50 at 24 h: 204 µM
Artemia salina L. larvae
  LC50: 30 to 100 µg/mL (≈ 84.5 to 282 µM)
[2]; Chlorocebus sabaeus, Vero
  IC50: 14.1 ± 0.18 µM
[3]; Homo sapiens
  IC50: 55.6 ± 1.49 µM
[4]; [6]
  IC50: 35.9 ± 4.57 µM

## COc1cc(/C=C2\CCC/C(=C\c3ccc(F)cc3)C2=O)ccc1O [Compound 1c, (2E,6E)-2-[(4-hydroxy-3-methoxyphenyl)methylidene]-6-[(4-fluorophenyl)methylidene] cyclohexan-1-one]
[1]
  LC50 at 24 h: 177 µM
Artemia salina L. larvae
  LC50: 30 to 100 µg/mL (≈ 88.7 to 296 µM)
[2]; Chlorocebus sabaeus, Vero
  IC50: 13.4 ± 0.39 µM
[3]; Homo sapiens
  IC50: 49.1 ± 1.17 µM
[4]; [6]
  IC50: 10.9 ± 0.79 µM

## CCN(CC)Cc1cc(/C=C2\CCC/C(=C\c3ccc(Cl)cc3)C2=O)cc(OC)c1O [Compound 2d, (2E,6E)-2-({3-[(diethylamino)methyl]-4-hydroxy-5-methoxyphenyl}methylidene)-6-[(4-chlorophenyl)methylidene]cyclohexan-1-one]
[1]
  LC50 at 24 h: 29.8 µM
Artemia salina L. larvae
  LC50: < 30 µg/mL
[2]; Chlorocebus sabaeus, Vero
  IC50: 3.94 ± 0.07 µM
[3]; Homo sapiens
  IC50: 40.6 ± 0.98 µM

## COc1ccc(/C=C2\CCC/C(=C\c3ccc(O)c(OC)c3)C2=O)cc1 [Compound 1b, (2E,6E)-2-[(4-hydroxy-3-methoxyphenyl)methylidene]-6-[(4-methoxyphenyl)methylidene] cyclohexan-1-one]
[1]
  LC50 at 24 h: 323 µM
Artemia salina L. larvae
  LC50: 100 to 1000 µg/mL (≈ 285 to 2850 µM)
[2]; Chlorocebus sabaeus, Vero
  IC50: 15.4 ± 0.34 µM
[3]; Homo sapiens
  IC50: 95.5 ± 7.19 µM
[4]; [6]
  IC50: 7.86 ± 1.05 µM
[4]; Homo sapiens, MCF7, same value in µg/mL, read-out: IC50 MCF7
  IC50: 2.75 µg/mL

## CCN(CC)Cc1cc(/C=C2\CCC/C(=C\c3ccc(OC)cc3)C2=O)cc(OC)c1O [Compound 2b, (2E,6E)-2-({3-[(diethylamino)methyl]-4-hydroxy-5-methoxyphenyl}methylidene)-6-[(4-methoxyphenyl)methylidene]cyclohexan-1-one]
[1]
  LC50 at 24 h: 80.2 µM
Artemia salina L. larvae
  LC50: 30 to 100 µg/mL (≈ 68.9 to 230 µM)
[2]; Chlorocebus sabaeus, Vero
  IC50: 7.29 ± 0.12 µM
[3]; Homo sapiens
  IC50: 69.3 ± 3.17 µM
